Activity calls are given as the source filed them. The rule behind the calls is not given here.
Key:
Format in all cases: functional
[1] = tested on: COLO 205; assay: Growth inhibition of human COLO205 cells by sulforhodamine B assay
[2] = tested on: K562; assay: Growth inhibition of human K562 cells by sulforhodamine B assay
[3] = tested on: CCRF-CEM; assay: Growth inhibition of human CCRF-CEM cells by sulforhodamine B assay
[4] = tested on: Hs-578T; assay: Growth inhibition of human Hs 578T cells assessed as growth inhibition at 10 uM by sulforhodamine B assay
[5] = tested on: SF-268; assay: Growth inhibition of human SF268 cells assessed as cell growth at 10^-8 M by sulforhodamine B assay; details: read-out: Activity
[6] = tested on: COLO 205; assay: Growth inhibition of human COLO205 cells assessed as cell growth at 10^-8 M by sulforhodamine B assay; details: read-out: Activity
[7] = tested on: A549; assay: Growth inhibition of human A549/ATCC cells assessed as cell growth at 10^-8 M by sulforhodamine B assay; details: read-out: Activity
[8] = tested on: SK-OV-3; assay: Growth inhibition of human SKOV3 cells by sulforhodamine B assay
[9] = tested on: BT-549; assay: Growth inhibition of human BT549 cells assessed as cell growth at 10^-4 M by sulforhodamine B assay; details: read-out: Activity
[10] = tested on: A498; assay: Growth inhibition of human A498 cells assessed as cell growth at 10^-4 M by sulforhodamine B assay; details: read-out: Activity
[11] = tested on: SK-OV-3; assay: Growth inhibition of human SKOV3 cells assessed as cell growth at 10^-4 M by sulforhodamine B assay; details: read-out: Activity
[12] = tested on: UACC-257; assay: Growth inhibition of human UACC257 cells assessed as cell growth at 10^-4 M by sulforhodamine B assay; details: read-out: Activity
[13] = tested on: M14; assay: Growth inhibition of human M14 cells assessed as cell growth at 10^-4 M by sulforhodamine B assay; details: read-out: Activity
[14] = tested on: HCT-15; assay: Growth inhibition of human HCT15 cells assessed as cell growth at 10^-4 M by sulforhodamine B assay; details: read-out: Activity
[15] = tested on: HCT-116; assay: Growth inhibition of human HCT116 cells assessed as cell growth at 10^-4 M by sulforhodamine B assay; details: read-out: Activity
[16] = tested on: NCI-H226; assay: Growth inhibition of human NCI-H226 cells assessed as cell growth at 10^-4 M by sulforhodamine B assay; details: read-out: Activity
[17] = tested on: CCRF-CEM; assay: Growth inhibition of human CCRF-CEM cells assessed as cell growth at 10^-4 M by sulforhodamine B assay; details: read-out: Activity
[18] = Growth inhibition of human Hs 578T cells assessed as cell growth at 10^-6 M by sulforhodamine B assay; details: read-out: Activity
[19] = tested on: MCF7; assay: Growth inhibition of human MCF7 cells assessed as cell growth at 10^-6 M by sulforhodamine B assay; details: read-out: Activity
[20] = tested on: TK-10; assay: Growth inhibition of human TK10 cells assessed as cell growth at 10^-6 M by sulforhodamine B assay; details: read-out: Activity
[21] = tested on: SK-OV-3; assay: Growth inhibition of human SKOV3 cells assessed as cell growth at 10^-6 M by sulforhodamine B assay; details: read-out: Activity
[22] = tested on: OVCAR-5; assay: Growth inhibition of human OVCAR5 cells assessed as cell growth at 10^-6 M by sulforhodamine B assay; details: read-out: Activity
[23] = tested on: UACC-257; assay: Growth inhibition of human UACC257 cells assessed as cell growth at 10^-6 M by sulforhodamine B assay; details: read-out: Activity
[24] = tested on: SF-295; assay: Growth inhibition of human SF295 cells assessed as cell growth at 10^-6 M by sulforhodamine B assay; details: read-out: Activity
[25] = tested on: T47D; assay: Growth inhibition of human T47D cells assessed as cell growth at 10^-7 M by sulforhodamine B assay; details: read-out: Activity
[26] = tested on: A498; assay: Growth inhibition of human A498 cells assessed as cell growth at 10^-7 M by sulforhodamine B assay; details: read-out: Activity
[27] = tested on: UACC-62; assay: Growth inhibition of human UACC62 cells assessed as cell growth at 10^-7 M by sulforhodamine B assay; details: read-out: Activity
[28] = tested on: LOX IMVI; assay: Growth inhibition of human LOXIMVI cells assessed as cell growth at 10^-7 M by sulforhodamine B assay; details: read-out: Activity
[29] = tested on: SF-539; assay: Growth inhibition of human SF539 cells assessed as cell growth at 10^-7 M by sulforhodamine B assay; details: read-out: Activity
[30] = tested on: KM12; assay: Growth inhibition of human KM12 cells assessed as cell growth at 10^-7 M by sulforhodamine B assay; details: read-out: Activity
[31] = tested on: HCT-116; assay: Growth inhibition of human HCT116 cells assessed as cell growth at 10^-7 M by sulforhodamine B assay; details: read-out: Activity
[32] = tested on: HCT-15; assay: Growth inhibition of human HCT15 cells assessed as cell growth at 10^-7 M by sulforhodamine B assay; details: read-out: Activity
[33] = tested on: COLO 205; assay: Growth inhibition of human COLO205 cells assessed as cell growth at 10^-7 M by sulforhodamine B assay; details: read-out: Activity
[34] = tested on: NCI-H522; assay: Growth inhibition of human NCI-H522 cells assessed as cell growth at 10^-7 M by sulforhodamine B assay; details: read-out: Activity
[35] = tested on: NCI-H23; assay: Growth inhibition of human NCI-H23 cells assessed as cell growth at 10^-7 M by sulforhodamine B assay; details: read-out: Activity

C/C=C(/C)C(=O)O[C@@H]1CC(C)(C)C[C@H]2C3=CC[C@@H]4[C@@]5(C)CC[C@H](O)C(C)(C)[C@@H]5CC[C@@]4(C)[C@]3(C)CC[C@@]12C(=O)O [Reduced Lantadene A]
GI50 ([1]; read-out: GI50): 2110 nM | GI50 ([1]; read-out: pGI50 (converted)): 2090 nM | GI50 ([2]; read-out: GI50): 2640 nM | LC50 ([2]; read-out: LC50): > 100 µM | TGI ([2]; read-out: TGI): 30.4 µM | GI50 ([2]; read-out: pGI50 (converted)): 2630 nM | LC50 ([2]; read-out: pLC50 (converted)): > 100 µM | TGI ([2]; read-out: pTGI (converted)): 30.2 µM | GI50 ([3]; read-out: GI50): 2310 nM | CC50 ([3]; read-out: LC50 (the source's name)): > 100 µM | TGI ([3]; read-out: TGI): 6.52 µM | GI50 ([3]; read-out: pGI50 (converted)): 2290 nM | CC50 ([3]; read-out: pLC50 (the source's name) (converted)): > 100 µM | TGI ([3]; read-out: pTGI (converted)): 6.46 µM | growth inhibition (GI) [4]: Active | growth at 0.01 µM [5]: 101% | growth at 0.01 µM [6]: 107% | growth at 0.01 µM [7]: 93% | GI50 ([8]; read-out: GI50): 1870 nM | GI50 ([8]; read-out: pGI50 (converted)): 1860 nM | growth at 100 µM [9]: -90% | growth at 100 µM [10]: -74% | growth at 100 µM [11]: 4% | growth at 100 µM [12]: -69% | growth at 100 µM [13]: -48% | growth at 100 µM [14]: -64% | growth at 100 µM [15]: -62% | growth at 100 µM [16]: -73% | growth at 100 µM [17]: -2% | growth at 1 µM [18]: 92% | growth at 1 µM [19]: 88% | growth at 1 µM [20]: 106% | growth at 1 µM [21]: 98% | growth at 1 µM [22]: 113% | growth at 1 µM [23]: 95% | growth at 1 µM [24]: 81% | growth at 0.1 µM [25]: 104% | growth at 0.1 µM [26]: 77% | growth at 0.1 µM [27]: 88% | growth at 0.1 µM [28]: 100% | growth at 0.1 µM [29]: 103% | growth at 0.1 µM [30]: 103% | growth at 0.1 µM [31]: 95% | growth at 0.1 µM [32]: 101% | growth at 0.1 µM [33]: 107% | growth at 0.1 µM [34]: 100% | growth at 0.1 µM [35]: 99%

— ChEMBL document CHEMBL2413072, “Synthesis and in vitro anticancer studies of novel C-2 arylidene congeners of lantadenes” (2013)
